In patent US20150018384A1, “TREATMENT FOR HIGH CHOLESTEROL” (FibroGen, Inc., priority 2012, published 2015):
“Also recorded” adds a separate entry of the source.

Assays:
ApoE deficient mice [1] = experiment: High cholesterol mouse model, ApoE deficient mice, 2 weeks; assay type: in vivo; conditions: Compound 60 mg/kg three times a week for two weeks, n=10/group, FIG. 22
Text: (§1) Ten-week-old male apoE knockout mice (Jackson Laboratories, Bar Harbor, Me.) were fed a normal chow diet (0.02% cholesterol, 13.5% fat by weight; LabDiet). […] After 2 weeks of acclimatization, whole blood was collected for baseline measurement before administration of test reagents. […] The animals were sacrificed at end of study.
ApoE deficient mice as described in Example 10 were used to test the effect of various compounds on cholesterol levels. […] A statin compound (rosuvastatin) was also tested. Blood samples were collected at the end of the study and total cholesterol blood levels were tested. A group of 10 mice was sacrificed at the beginning of the study for a baseline total cholesterol measurement. […] Typically statins show mixed results in this model and are not very effective to reduce cholesterol in mice (Bea et al. 2003 Atherosclerosis 167:187-194).

DIO mice = experiment: High cholesterol mouse model, diet induced obesity (DIO) mice
Text: Ten-week-old male apoE knockout mice (Jackson Laboratories, Bar Harbor, Me.) were fed a normal chow diet (0.02% cholesterol, 13.5% fat by weight; LabDiet). Ten-week-old male diet induced obese mice (DIO Mice, Jackson Laboratories, Bar Harbor, Me.) were fed a high fat diet (0.095% cholesterol, 60% fat by weight; ResearchDiets) starting at six-weeks-old. After 2 weeks of acclimatization, whole blood was collected for baseline measurement before administration of test reagents. All test reagents were administered orally by gavage needle three times a week for 2 weeks for the apoE mice, and three times a week for 4 weeks for the DIO mice. The animals were sacrificed at end of study. Whole blood was collected weekly in Heparin-tube by submandibular bleeding and isolated plasma was stored at −80° C. for measurement of total cholesterol.
DIO mice as described in Example 10 were used to test the effect of various compounds on cholesterol levels. Compound (60 mg/kg) or vehicle was administered to the mice (n=10/group) three times a week for four weeks. A statin compound (rosuvastatin) was also tested. Blood samples were collected at weekly and total cholesterol blood levels were tested.

cynomolgus monkeys [2] = experiment: Cholesterol levels after repeated oral administration in monkey toxicity studies; assay type: in vivo, cynomolgus monkey; conditions: 28-Day study, daily oral dosing 1, 10 and 30 mg/kg
Protocol: During these studies monkeys were fasted prior to each blood collection. Plasma samples were then evaluated at pre-dose and at different time-points for levels of total cholesterol.

cynomolgus monkeys [3] = experiment: Lipid panel in monkeys after single IV or PO dose; assay type: in vivo, cynomolgus monkey; conditions: 30 mg/kg IV or PO (3 each, 6 monkeys), 24 hrs post-dose, ±SD
Protocol: The same monkeys were administered the test compounds in sequence with a washout period between administration of each compound. Monkeys were fasted overnight prior to dosing and food was withheld during the first 4 hours after dosing and food was then allowed. Blood samples were collected at baseline prior to dosing, 4, 12, 24, 48 and 72 hrs after HIF-PHI administration. […] There were a total of 6 monkeys in each dose group, 3 that were dosed PO and 3 dosed IV.

healthy human subjects = conditions: 0.15 mg/kg or […] weekly for 4 weeks
Protocol: Placebo was administered in the same regimen as a control (n=2 or n=1). Fasting blood samples for cholesterol analysis were collected from subjects in the morning on the day of dosing before compound or placebo was administered.

ApoE deficient mice [4] = experiment: Cholesterol reduction and erythrogenesis in ApoE deficient mice, 4 weeks; assay type: in vivo, mouse; conditions: orally 2, 20, 60 or 100 mg/kg three times a week for 4 weeks, n=8/group
Protocol: as §1
Total cholesterol and hemoglobin were measured weekly.

[5] = system: genes involved in cholesterol biosynthesis in DIO mice liver; experiment: Microarray expression of cholesterol biosynthesis genes in liver of DIO mice; assay type: in vivo, mouse; conditions: 60 mg/kg three times a week, 4 weeks of dosing, relative to vehicle treated mice
Protocol: (§2) A number of PHI compounds were evaluated for their effect on the expression of cholesterol biosynthesis genes in mouse liver. […] Liver tissue was harvested and stored in RNALater (Life Technologies). Total RNA was isolated with Trizol (Life Technologies) and purified with RNEasy96 (Qiagen) according to the manufacturers' protocols. RNA concentration was measured by NanoDrop (Thermo), and quality was assessed by Bioanalyzer (Agilent).
(§3) Biotinylated microarray probe was prepared using the 3′IVT Express kit (Affymetrix) and hybridized to mouse 430A 2.0 arrays as recommended in the manufacturer's protocol. Arrays were stained, washed, and scanned using Affymetrix equipment and software. Three arrays were run for each treatment and time point, each representing the liver sample from one individual animal.
(§4) For microarray analysis, RNA from animals in each treatment group was pooled in pairs (n=3 pairs for 4 h vehicle, n=2 pairs for all other treatment groups, for a total of 13 arrays per compound study). This approach was used to improve the signal-to-noise ratio on microarrays. Biotinylated probe was prepared using the One-Cycle cDNA synthesis kit (Affymetrix) and hybridized to mouse 430A 2.0 arrays as recommended in the manufacturer's protocol. Arrays were stained, washed, and scanned using Affymetrix equipment and software.
(§5) Array quality was assessed with GeneChip Operating System and/or Command Console software (Affymetrix). CEL files were uploaded to GeneSpring 7.3.1 (Agilent) using GC-RMA baseline correction. Principal Components Analysis was used to identify and reject outlier arrays. Data are reported as fold-change compared to timepoint-matched vehicle controls from the same study. Values less than 1.0 indicate a reduction of RNA in the treated animal liver tissue.
Liver tissue was collected as described in Example 6 from DIO mice at the end of the study (4 weeks of dosing) described in Example 12. RNA isolation and microarray analysis were carried out as described in Example 6. The expression of 16 genes involved in cholesterol biosynthesis in mice treated with Compound B, Compound E, or Compound D, relative to that in the vehicle treated mice, is shown in Table 7.

[6] = system: Cholesterol Biosynthesis Genes in the Mouse Liver; experiment: Microarray expression of cholesterol biosynthesis genes in mouse liver; assay type: in vivo; conditions: 10 mg/kg oral
Protocol: as §2, §3
Animals were sacrificed 4 h or 8 h later. Each compound was tested in a separate animal study with separate controls. Liver tissue was harvested and stored in RNALater (Life Technologies). Total RNA was isolated with Trizol (Life Technologies) and purified with RNEasy96 (Qiagen) according to the manufacturers' protocols. RNA concentration was measured by NanoDrop (Thermo), and quality was assessed by Bioanalyzer (Agilent).
as §4, §5

CC(C)c1nc(N(C)S(C)(=O)=O)nc(-c2ccc(F)cc2)c1/C=C/[C@@H](O)C[C@@H](O)CC(=O)O [rosuvastatin, reference compound]
total cholesterol levels at the end of the study compared to baseline (ApoE deficient mice [1]): did not show a reduction in cholesterol
percent change from baseline in total cholesterol at two weeks compared to vehicle treated (DIO mice; Compound 60 mg/kg three times a week, n=10/group, FIG. 23): lower total cholesterol levels

N#Cc1nc(C(=O)NCC(=O)O)c(O)c2c(Oc3ccc(Cl)cc3)cccc12 [Compound C]
total cholesterol levels (cynomolgus monkeys [2]; day 14 and 29): dose-dependent decrease in cholesterol levels
total cholesterol levels (cynomolgus monkeys [2]; day 14 and 29, listed as compound C): dose dependent decrease in total cholesterol
Cholesterol change from baseline (cynomolgus monkeys [3]): -11.8 ± 4.9 mg/dL
HDL change from baseline (cynomolgus monkeys [3]): 0.5 ± 6.9 mg/dL
TGs change from baseline (cynomolgus monkeys [3]): -10 ± 21 mg/dL
total cholesterol levels over the course of treatment (healthy human subjects): decreased

COc1ccc(Oc2ccc3c(O)c(C(=O)NCC(=O)O)ncc3c2)cc1 [Compound D, {[4-Hydroxy-7-(4-methoxy-phenoxy)-isoquinoline-3-carbonyl]-amino}-acetic acid]
total cholesterol levels (cynomolgus monkeys [2]; day 28): dose-dependent decrease in cholesterol levels
total cholesterol levels (cynomolgus monkeys [2]; day 28, listed as compound D): dose dependent decrease in total cholesterol
total cholesterol levels at the end of the study compared to baseline (ApoE deficient mice [1]): significantly decreased cholesterol levels
hemoglobin compared to vehicle-treated (ApoE deficient mice [4]): did not significantly increase hemoglobin at any of the tested doses; also recorded: did not show a significant increase in hemoglobin at any of the doses tested
total cholesterol (% change from baseline) compared to vehicle-treated (ApoE deficient mice [4]): lower total cholesterol levels; also recorded: significant percent change in total cholesterol from baseline for the 20 mg/kg, 60 mg/kg, and 100 mg/kg doses
3-hydroxy-3-methylglutaryl-Coenzyme A reductase (Hmgcr) expression [5]: 0.47
3-hydroxy-3-methylglutaryl-Coenzyme A synthase 1 (Hmgcs1) expression [5]: 0.42
7-dehydrocholesterol reductase (Dhcr7) expression [5]: 0.76
NAD(P) dependent steroid dehydrogenase-like (Nsdhl) expression [5]: 1.02
acetyl-Coenzyme A acetyltransferase 2 (Acat2) expression [5]: 0.72
cytochrome P450, family 51 (Cyp51) expression [5]: 0.55
farnesyl diphosphate farnesyl transferase 1 (Fdft1) expression [5]: 0.44
farnesyl diphosphate synthetase (Fdps) expression [5]: 0.92
isopentenyl-diphosphate delta isomerase (Idi1) expression [5]: 0.67
lanosterol synthase (Lss) expression [5]: 0.70
mevalonate (diphospho) decarboxylase (Mvd) expression [5]: 0.43
mevalonate kinase (Mvk) expression [5]: 0.77
phosphomevalonate kinase (Pmvk) expression [5]: 1.14
squalene epoxidase (Sqle) expression [5]: 0.89
sterol-C4-methyl oxidase-like (Sc4mol) expression [5]: 0.38
sterol-C5-desaturase (fungal ERG3, delta-5-desaturase) homolog (S. cerevisae) (Sc5d) expression [5]: 0.42

N#Cc1nc(C(=O)NCC(=O)O)c(O)c2ccn(Cc3ccccc3F)c12 [Compound G, {[7-Cyano-1-(2-fluoro-benzyl)-4-hydroxy-1H-pyrrolo[2,3-c]pyridine-5-carbonyl]-amino}-acetic acid]
Cholesterol change from baseline (cynomolgus monkeys [3]): -6.5 ± 10.4 mg/dL
HDL change from baseline (cynomolgus monkeys [3]): 0.17 ± 5.4 mg/dL
LDL change from baseline (cynomolgus monkeys [3]): -8.7 ± 5.9 mg/dL
LDL/HDL ratio change from baseline (cynomolgus monkeys [3]): −0.13 ± 0.08
TGs change from baseline (cynomolgus monkeys [3]): -23 ± 8 mg/dL
3-hydroxy-3-methylglutaryl-Coenzyme A reductase (Hmgcr) RNA expression ([6]; 4 h): 0.68 fold-change
3-hydroxy-3-methylglutaryl-Coenzyme A synthase 1 (Hmgcs1) RNA expression ([6]; 4 h): 1.29 fold-change
7-dehydrocholesterol reductase (Dhcr7) RNA expression ([6]; 4 h): 0.91 fold-change
NAD(P) dependent steroid dehydrogenase-like (Nsdhl) RNA expression ([6]; 4 h): 1.46 fold-change
acetyl-Coenzyme A acetyltransferase 2 (Acat2) RNA expression ([6]; 4 h): 1.18 fold-change
cytochrome P450, family 51 (Cyp51) RNA expression ([6]; 4 h): 1.00 fold-change
farnesyl diphosphate farnesyl transferase 1 (Fdft1) RNA expression ([6]; 4 h): 1.15 fold-change
farnesyl diphosphate synthetase (Fdps) RNA expression ([6]; 4 h): 1.16 fold-change
isopentenyl-diphosphate delta isomerase (Idi1) RNA expression ([6]; 4 h): 1.13 fold-change
lanosterol synthase (Lss) RNA expression ([6]; 4 h): 1.22 fold-change
mevalonate (diphospho) decarboxylase (Mvd) RNA expression ([6]; 4 h): 1.03 fold-change
mevalonate kinase (Mvk) RNA expression ([6]; 4 h): 0.98 fold-change
phosphomevalonate kinase (Pmvk) RNA expression ([6]; 4 h): 0.95 fold-change
squalene epoxidase (Sqle) RNA expression ([6]; 4 h): 1.50 fold-change
sterol-C4-methyl oxidase-like (Sc4mol) RNA expression ([6]; 4 h): 0.87 fold-change
sterol-C5-desaturase (fungal ERG3, delta-5-desaturase) homolog (S. cerevisae) (Sc5d) RNA expression ([6]; 4 h): 0.70 fold-change
3-hydroxy-3-methylglutaryl-Coenzyme A reductase (Hmgcr) RNA expression ([6]; 8 h): 0.66 fold-change
3-hydroxy-3-methylglutaryl-Coenzyme A synthase 1 (Hmgcs1) RNA expression ([6]; 8 h): 0.82 fold-change
7-dehydrocholesterol reductase (Dhcr7) RNA expression ([6]; 8 h): 1.07 fold-change
NAD(P) dependent steroid dehydrogenase-like (Nsdhl) RNA expression ([6]; 8 h): 1.00 fold-change
acetyl-Coenzyme A acetyltransferase 2 (Acat2) RNA expression ([6]; 8 h): 0.67 fold-change
cytochrome P450, family 51 (Cyp51) RNA expression ([6]; 8 h): 0.62 fold-change
farnesyl diphosphate farnesyl transferase 1 (Fdft1) RNA expression ([6]; 8 h): 0.98 fold-change
farnesyl diphosphate synthetase (Fdps) RNA expression ([6]; 8 h): 0.73 fold-change
isopentenyl-diphosphate delta isomerase (Idi1) RNA expression ([6]; 8 h): 0.94 fold-change
lanosterol synthase (Lss) RNA expression ([6]; 8 h): 0.87 fold-change
mevalonate (diphospho) decarboxylase (Mvd) RNA expression ([6]; 8 h): 1.03 fold-change
mevalonate kinase (Mvk) RNA expression ([6]; 8 h): 0.89 fold-change
phosphomevalonate kinase (Pmvk) RNA expression ([6]; 8 h): 0.70 fold-change
squalene epoxidase (Sqle) RNA expression ([6]; 8 h): 1.22 fold-change
sterol-C4-methyl oxidase-like (Sc4mol) RNA expression ([6]; 8 h): 0.58 fold-change
sterol-C5-desaturase (fungal ERG3, delta-5-desaturase) homolog (S. cerevisae) (Sc5d) RNA expression ([6]; 8 h): 0.48 fold-change
body weights at the end of the study (DIO mice; 60 mg/kg three times a week for four weeks): lower body weights
